Assay type in all cases: binding
Assay [1] has as its target T1, CagFbFP (Q89E variant: LSSFbFP) (Chloroflexus aggregans, UniProt B8GAY9, C85A/Q89E).
T1 construct: gene Cagg_3753; C85A background inferred from printed I52V-A85Q and known biology
T1 sequence (B8GAY9 47-153 C85A/Q89E): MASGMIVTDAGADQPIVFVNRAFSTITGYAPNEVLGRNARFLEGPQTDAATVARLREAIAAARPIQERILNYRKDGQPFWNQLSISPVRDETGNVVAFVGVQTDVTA
As to the kind of experiment: melting curve by flavin fluorescence in real-time PCR cycler. The following applies: Tm of the complex, not a shift.

Assay [2] deals with T1, CagFbFP (Q89E variant: LSSFbFP). Put plainly: chromophore dissociation constant measurement, details in cited reference; crystal structure of complex.
The target is the same in assay [3]. Put plainly: melting curve by flavin fluorescence in real-time PCR cycler. The following applies: Tm of the complex, not a shift. The source holds these as a separate data set.

For orientation: Kd means the concentration at which binding is half-saturated. Higher therefore signals lower affinity.

`Cc1cc2nc3c(=O)[nH]c(=O)nc-3n(C[C@H](O)[C@H](O)[C@H](O)COP(=O)(O)O)c2cc1C` [FMN, flavin mononucleotide]: the denaturation temperature in assay [1] was found to be 81 °C. The compound further displayed a Kd in assay [2] of 0.36 ± 0.05 µM.

In the case of `Cc1cc2nc3[nH]c(=O)[nH]c(=O)c3nc2cc1C` [LC, lumichrome], the thermal stability in assay [3] stood at 58 °C. In assay [2], this compound returned a Kd of 0.9 ± 0.3 µM.

For the origin of these results see doi:10.1101/2025.06.07.658458v1, “Discovery of excited state proton transfer in flavin-based fluorescent protein with large Stokes shift” (biorxiv, 2025).
